Drawing on PubChem BioAssay (NCI), this text covers TGI and GI50 for 12 compounds.

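Briefly, cells in 96-well plates were exposed to five compound concentrations for 48 h, and endpoints were estimated by linear interpolation. GI50: concentration for 50% inhibition of growth. The concentration for full growth arrest is given as TGI.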

Test systems include 786-0 renal; A498 renal; CCRF-CEM leukemia; IGROV1 ovarian; KM12 colon; LOX IMVI melanoma; NCI-H522 lung; SF-268 CNS; SF-539 CNS; SR leukemia.
Common to all, as to test: NCI anticancer screen, dose series, 48 h

`Cc1cc(C)nc(NS(=O)(=O)c2ccc(Nc3c4ccccc4nc4c(C(=O)Nc5ccc(S(N)(=O)=O)cc5)cccc34)cc2)n1`: the TGI in the assay with 786-0 renal, in the assay with A498 renal, in the assay on CCRF-CEM leukemia, with IGROV1 ovarian, in the assay on KM12 colon and in the assay on LOX IMVI melanoma was > 100 µM each time. For the same compound, the TGI in the assay on NCI-H522 lung, with SF-268 CNS and in the assay on SF-539 CNS was > 100 µM each time.

Take `C=C(c1ccccc1N)[C@@]1(O)C[C@H](/C(=C\C)CO)C[C@@H]1NCc1ccccc1`: the TGI in the assay on 786-0 renal is 46 µM; with A498 renal it was > 100 µM; with CCRF-CEM leukemia, 57.2 µM; in the assay with IGROV1 ovarian, > 100 µM; in the assay with KM12 colon it was 33.7 µM; with LOX IMVI melanoma, 31.6 µM. Also, the TGI in the assay with NCI-H522 lung was 33.4 µM; with SF-268 CNS, > 100 µM; in the assay with SF-539 CNS, 29.9 µM.

Take `C1CCC([PH+](C2CCCCC2)C2CCCCC2[PH+](C2CCCCC2)C2CCCCC2)CC1.[Au].[CH-]1CCCCC1C1CCCC[N-]1` (configuration not stated): the GI50 is 0.43 µM with 786-0 renal; 122 nM in the assay with A498 renal; 426 nM with CCRF-CEM leukemia; 0.337 µM in the assay on SF-539 CNS; 392 nM with SR leukemia. The TGI with 786-0 renal was 1.9 µM; in the assay on A498 renal it was 0.581 µM; in the assay on CCRF-CEM leukemia, > 100 µM; with SF-539 CNS it was 1.28 µM; in the assay with SR leukemia, > 100 µM.

Consider `NC(N)=NS(=O)(=O)c1ccc(NC(=O)c2cccc3c(Nc4ccc(S(=O)(=O)N=C(N)N)cc4)c4ccc(Cl)cc4nc23)cc1`, for which the TGI in the assay on 786-0 renal, in the assay on A498 renal, in the assay with CCRF-CEM leukemia, in the assay on IGROV1 ovarian, with KM12 colon and in the assay on LOX IMVI melanoma was > 100 µM in each case. Moreover, the TGI in the assay with NCI-H522 lung, in the assay with SF-268 CNS and in the assay with SF-539 CNS was > 100 µM throughout.

Take `COc1cc2cc(Oc3ccc(NC(=O)Nc4cccc(C(F)(F)F)c4)cc3)c(C)nc2cc1OCCN1CCCCC1`: the GI50 in the assay with 786-0 renal was 1.72 µM; with A498 renal, 1450 nM; in the assay with KM12 colon it was 1.72 µM; in the assay on NCI-H522 lung, 1.67 µM; in the assay on SF-539 CNS, 1.67 µM; in the assay with SR leukemia it was 479 nM. Besides, the TGI came out at 3.21 µM in the assay on 786-0 renal; 2.9 µM in the assay on A498 renal; 3.3 µM in the assay on KM12 colon; 3.33 µM with NCI-H522 lung; 3.05 µM in the assay on SF-539 CNS; 2.52 µM in the assay on SR leukemia.

Turning to `CCCCCCC(=O)C/C(CCC(=O)N(Cc1ccccc1)Cc1ccccc1)=N\Nc1ccc([N+](=O)[O-])cc1[N+](=O)[O-]`, the TGI was > 100 µM with 786-0 renal; > 100 µM with A498 renal; 56.1 µM in the assay on CCRF-CEM leukemia; > 100 µM in the assay on IGROV1 ovarian; > 100 µM in the assay on KM12 colon; > 100 µM in the assay with LOX IMVI melanoma. The TGI in the assay on NCI-H522 lung, in the assay with SF-268 CNS and in the assay with SF-539 CNS was > 100 µM throughout.

Turning to `NC(N)=NC(CC(=O)O)c1ccccc1` (configuration not stated), the TGI with 786-0 renal, in the assay with A498 renal, with IGROV1 ovarian, in the assay on KM12 colon, with LOX IMVI melanoma and in the assay with NCI-H522 lung was > 100 µM in each case. Moreover, the TGI in the assay with SF-268 CNS, with SF-539 CNS and in the assay with SR leukemia was > 100 µM in each case.

Take `N#C/C(=C\c1c(-c2ccccc2)[nH]c2ccccc12)C(=O)c1ccc(Cl)cc1`: the GI50 in the assay on 786-0 renal was 5.53 µM; in the assay with A498 renal, 2820 nM; with CCRF-CEM leukemia, 2480 nM; with IGROV1 ovarian it was 4.65 µM; in the assay with KM12 colon it was 0.735 µM; in the assay on LOX IMVI melanoma, 4.76 µM. For the same compound, the GI50 is 2.89 µM in the assay with NCI-H522 lung, 4.55 µM in the assay on SF-268 CNS and 0.715 µM with SF-539 CNS. For the same compound, the TGI is 23.5 µM with 786-0 renal; 14.7 µM in the assay on A498 renal; > 100 µM in the assay with CCRF-CEM leukemia; 41.5 µM in the assay on IGROV1 ovarian; 23.6 µM with KM12 colon; > 100 µM in the assay with LOX IMVI melanoma. The figures for the TGI in the assay on NCI-H522 lung, with SF-268 CNS and in the assay with SF-539 CNS were > 30 µM, 24.8 µM and 3.99 µM, respectively.

Turning to `N#Cc1ccccc1NC(=O)C(=O)C(C(=O)c1ccccc1-c1ccccc1)C1OC(=O)c2ccccc21` (configuration not stated), the TGI in the assay on 786-0 renal is 33.5 µM; in the assay on A498 renal, 45.2 µM; in the assay on CCRF-CEM leukemia, > 100 µM; in the assay with IGROV1 ovarian, 66.7 µM; in the assay with KM12 colon, 41.3 µM; with LOX IMVI melanoma it was 32.2 µM. In addition, the TGI with NCI-H522 lung turned out to be 21 µM; in the assay with SF-268 CNS, 38.8 µM; in the assay with SF-539 CNS it was 22.7 µM.

`Nc1ccn(C=C=CCO)c(=O)n1`: the GI50 in the assay on 786-0 renal, with IGROV1 ovarian, with KM12 colon, in the assay with LOX IMVI melanoma, in the assay on NCI-H522 lung and in the assay on SF-268 CNS was > 1000 µM each time. For the same compound, the GI50 with SF-539 CNS was > 1000 µM. The TGI in the assay on 786-0 renal, in the assay with CCRF-CEM leukemia, in the assay with IGROV1 ovarian, with KM12 colon, in the assay on LOX IMVI melanoma and in the assay with NCI-H522 lung was > 1000 µM in each case. In addition, the TGI in the assay with SF-268 CNS, in the assay on SF-539 CNS and in the assay with SR leukemia was > 1000 µM throughout.

On to `CCOC(=O)Cc1c(Cc2[nH]c(C(=O)OCc3ccccc3)c(CC(=O)OCC)c2CC(=O)OCC)[nH]c(C(=O)OCc2ccccc2)c1CC(=O)OCC`, for which the TGI in the assay with 786-0 renal, with A498 renal, in the assay on CCRF-CEM leukemia, in the assay with IGROV1 ovarian, with NCI-H522 lung and with SF-268 CNS was > 100 µM each time. For the same compound, the TGI with SF-539 CNS and in the assay with SR leukemia was > 100 µM in each case.

For the compound `COc1cc(C(=O)O)c([N+](=O)[O-])c(OC)c1OC`, the TGI with 786-0 renal, in the assay with A498 renal, in the assay on IGROV1 ovarian, with KM12 colon, in the assay on LOX IMVI melanoma and in the assay with NCI-H522 lung was > 100 µM throughout. Besides, the TGI in the assay on SF-268 CNS, in the assay with SF-539 CNS and in the assay with SR leukemia was > 100 µM in each case.
